In patent publication US20100204277A1, “Compositions and Methods for Controlling Infestation” (HATCHTECH PTY LTD., priority 2007, published 2010):
Several values for one entry are separate records, joined by “and”; a condition that tells them apart may be missing. Equal entries are not always repeated. Where two headings read alike, the source gives them in different places.

Tests used:
[1] = tested on: Plutella xylostella eggs (Waite strain); experiment: Reversal of ovicidal effect by added metal ions (FeSO4), Plutella eggs; type: in vivo
Experimental: (§1) Within 24 hours of collection the following experimental design was chosen. Batches of eggs were exposed to 10 mM 6,6′-dimethyl-2,2′-dipyridyl for 2 seconds while additional batches of eggs were exposed to the solvent only (Methanol) for 2 seconds. All batches of eggs were allowed to air dry for 20 minutes at room temperature. The eggs were then given a 2 second exposure to FeSO4 at either 10, 5 or 1 mM, air dried and put in the incubator at 24° C. and allowed to hatch over the next 6 days. In addition, a positive control of 10 mM 6,6′-dimethyl-2,2′-dipyridyl was set up in which eggs were exposed to this compound for 2 seconds, air dried and placed in the incubator.
as §1, with “10 mM 5,5′-dimethyl-2,2′-dipyridyl for 2” for “10 mM 6,6′-dimethyl-2,2′-dipyridyl for 2”, “FeSO4 at 10, 5” for “FeSO4 at either 10, 5”, “put in an incubator at” for “put in the incubator at”, “of 10 mM, 5,5′-dimethyl-2,2′-dipyridyl was set” for “of 10 mM 6,6′-dimethyl-2,2′-dipyridyl was set”

H. contortus eggs = experiment: Haemonchus contortus egg hatch; type: in vivo
Experimental: In an attempt to improve control of H. contortus the effects of the compound 5,5′-dimethyl-2,2′-dipyridyl was examined on H. contortus eggs. Eggs were recovered from the faeces of infected sheep using a standard sucrose floatation method. The eggs were corrected to a density of approximately 2,500 eggs per mL and were then exposed to varying concentrations of compound and incubated for 48 hours at 25° C. The eggs were then examined to determine the ovicidal efficacy of the compound in comparison to untreated control and a solvent only control.
In addition, the ovicidal efficacy of the compound 2-acetyl-1-tetralone was examined against H. contortus (FIG. 10). The same protocol was used as described for 5,5′-dimethyl-2,2′-dipyridyl.

house dust mite = experiment: House dust mite counts on treated filter paper; type: in vivo, Dermatophagoides spp; conditions: per replicate; for 2 week count (mite count): 2 weeks at 25° C. and 75% RH
Experimental: A filter paper (90 mm diameter) was taken and placed in a Petri dish of the same dimensions. The filter paper was then wetted throughout with the test compound, using a small air pump sprayer. The wetted filter paper was then allowed to dry in free flowing air. 200 mg dust mite medium, containing roughly 500 mites/g, was placed on the filter paper and the number of mites counted under a microscope. The arena was then left for 2 weeks on an incubator at 25° C. and 75% RH. After 2 weeks the number of mites in the arena was counted for a second time. This experiment was repeated 3 times with the test compound and a further 3 times using water as a control.

[2] = tested on: Third stage H. contortus larvae; experiment: Survival of third stage H. contortus larvae (L3 to L4); type: in vivo, Haemonchus contortus
Experimental: Third stage H. contortus larvae were exposed to varying concentrations of 5,5′-dimethyl-2,2′-dipyridyl and the effects on moulting from L3 to L4 examined. The larvae were either exsheathed (their L2 sheath was removed chemically) or unexsheathed (their L2 sheaths were intact). The larvae were exposed to varying concentrations of 5,5′-dimethyl-2,2′-dipyridyl added to their culture media of DMEM and the effects on larval survival monitored over time. Following a 30 minute incubation at 37° C., greater than 90% of the exsheathed larvae exposed to 1 and 0.5 mM of the compound appeared dead. […] By day six post exposure greater than 90% of the larvae appeared to have died in the treatment groups while the control larvae appeared healthy.

head lice eggs = experiment: Formulated compound on egg hatching in head lice; type: in vivo; conditions: 20 mM formulation
Experimental: Gravid female lice were permitted to lay eggs. The eggs were counted, inspected under a light microscope and all eggs that appeared undamaged were allocated to one of two treatment groups. One group was exposed to 5′-dimethyl-2,2′-dipyridyl in a formulation, while the second group was exposed to the formulation only. The protocol was as follows:
Treatments: 5′-dimethyl-2,2′-dipyridyl (20 mM) n=10 • Vehicle control only n=10
Exposure time: 10 minutes
Wash time: 1 minute @˜37° C.
Incubation: All eggs were placed at 31° C. in a humid incubator and monitored for signs of development specifically of the eyes and subsequent hatching, see Table 21.

[3] = tested on: Plutella xylostella eggs (Waite strain); experiment: Plutella xylostella egg hatch (egg dip); conditions: for egg hatching of Plutella eggs (Tables 10 and 11): cloth or parafilm; for ovicidal efficacy against Plutella eggs (FIG. 7): 1% diethoxyglycol; for % Inhibition of egg hatch relative to control: Example 12, dip 2-10 seconds, day 6 post laying
Experimental: Several hundred Plutella xylostella eggs (Waite strain) were collected, that had been laid over a 24 hour period.
The egg masses were then placed in a humid box at 25° C. until egg hatch. Control eggs were exposed to absolute methanol as described above. At day 6 post laying the eggs were assessed from the different treatments and the percentage of egg hatch determined relative to the control as shown in Table 9.
Batches of Plutella eggs that were laid on either fine cloth or parafilm were dipped in a specific inhibitor solution for between 2-10 seconds, the excess solution was drained by blotting with dry tissue paper. The egg masses were then placed in a humid box at 25 degrees until egg hatch. Control eggs were exposed to absolute methanol as described above or not treated. At day 6 post laying the eggs were assessed from the different treatments and the percentage of egg hatch determined relative to the controls as shown in Tables 10 and 11.
The egg masses were then placed in a humid box at 25 degrees until egg hatch. Control eggs were exposed to absolute ethanol as described above. On day 6 post laying the eggs were assessed from the different treatments and the percentage of egg hatch determined relative to the control.

[4] = tested on: Lice (L) / Plutella (P) eggs; type: in vivo; conditions: Lice/Plutella: P
Experimental: Log LD50 is obtained from the observed percentage ovicidal activity by conversion using a modified logit transformation. The observed percentage ovicidal activity values were transformed using the equation:
The additional 5% was used to allow a number to be calculated when 0% and 100% activity was observed. The BA is a crude correction to the log of the concentration at which the compounds were tested. Correlation between BA values and LD50 allows the calculation of Log LD50. […] A number of metal chelating agents with potential for inhibiting the remodelling events associated with thin membrane egg hatching in lice were analysed by comparing their percentage ovicidal activity in lice at different concentrations, their logit calculated pLD50, Pref pLD50, Activity class, clogP and molar refractivity were determined.

[5] = tested on: Helicoverpa armigera eggs; experiment: Helicoverpa egg hatch; conditions: for ovicidal efficacy against H. armigera eggs (FIG. 6): 1% diethoxyglycol in water; for % Inhibition of egg hatch relative to control: Example 16, exposed 2-10 seconds, day 6 post laying
Experimental: A range of concentrations were made up in water and the eggs placed in the solutions for approximately 2-10 seconds. The eggs which had been laid on cloth were then blotted dry and placed in an incubator at 26° C. for 3-4 days until hatch. Hatch rates were then assessed compared to a water only treated control (FIG. 5).
The compound was dissolved in 100% diethoxyglycol and diluted to a final concentration of 1% in water.
Several hundred Helicoverpa armigera eggs (Tatura×Toowoomba strains) were collected, that had been laid on fine mesh cloth over a 24 hour period.
Batches of Helicoverpa eggs were exposed to a specific inhibitor solution for between 2-10 seconds the excess solution drained by blotting with dry tissue paper. The egg masses were then placed in a humid box at 25 degrees until egg hatch. Control eggs were exposed to absolute methanol as described above. At day 6 post laying the eggs were assessed from the different treatments and the percentage of egg hatch determined relative to the control as shown in Table 12.
Batches of Helicoverpa eggs were then exposed to a specific inhibitor solution for between 2-10 seconds the excess solution drained by blotting with dry tissue paper. The egg masses were then placed in a humid box at 25° C. until egg hatch. Control eggs were exposed to absolute methanol as described above. At day 6 post laying the eggs were assessed from the different treatments and the percentage of egg hatch determined relative to the control as shown in Table 13.

[6] = 10 mM compound followed by 2 second exposure to 1 mM FeSO4
[7] = 10 mM compound followed by 2 second exposure to 5 mM FeSO4
[8] = 10 mM compound followed by 2 second exposure to 10 mM FeSO4

In the case of `Cc1ccc(-c2ccc(C)cn2)nc1` [5,5′-dimethyl-2,2′-dipyridyl], the “% Inhibition relative to the FeSO4 controls” value [1, 6] is reported as 0%, the “% Inhibition relative to the FeSO4 controls” value [1, 7] is reported as 0% and the “% Inhibition relative to the FeSO4 controls” value [1, 8] is reported as 8%. The “ovicidal efficacy on H. contortus eggs (FIG. 8)” value (H. contortus eggs; 180 and 18 ug/mL (equivalent to 1 and 0.1 mM), 48 hours at 25° C.) was “potently ovicidal”, the “2 week count (mite count)” value (house dust mite; listed as Test Compound) was 50 and 90 and the “2 week count (mite count)” value (house dust mite; listed as Test compound) was 74. The “1 hour count (mite count)” value (house dust mite; listed as Test Compound) was 61 and 104, the “1 hour count (mite count)” value (house dust mite; listed as Test compound) was 76 and the “appearance of unexsheathed larvae” value ([2]; 10 μM, up to 6 days post exposure) was “appeared normal”. The “effects on unexsheathed larvae compared to control larvae” value ([2]; up to 3 days post exposure) was “no adverse effects”, the “egg hatching in head lice” value (head lice eggs; 10 minutes exposure) was “significantly suppress” and the “eggs that failed to hatch” value (head lice eggs; the eggs other than the two that developed) was 80%. For the same molecule, the “egg hatching of Plutella eggs (Tables 10 and 11)” value (from here on “egg hatching of Plutella eggs”) ([3]; 10 and 1 mM) was “significantly inhibit”.
In the case of `CC(=O)C1CCc2ccccc2C1=O` (stereo not drawn) [2-acetyl-1-tetralone], the “Activity class 0 = inactive 1 = low 2 = med 3 = high” value ([4]; 1 mM) is reported as 3 (a pLD50 greater than 4 is considered strongly active (Class 3)), the “Activity class 0 = inactive 1 = low 2 = med 3 = high” value ([4]; 10 mM) is reported as 1 (a pLD50 value between 2 and 3 is considered weakly active (Class 1)) and the “inhibition of H. contortus egg hatch (FIG. 10)” value (H. contortus eggs; 22 ug/mL (0.1 mM)) is reported as “Partial inhibition”. The “inhibition of H. contortus egg hatch (FIG. 10)” value (H. contortus eggs; 220 ug/mL (1 mM) and 110 ug/mL (0.5 mM)) was “highly effective”, the “ovicidal efficacy against H. armigera eggs (FIG. 6)” value ([5]; 1 mM) was “efficacy declining” and the “ovicidal efficacy against H. armigera eggs (FIG. 6)” value ([5]; 2 mM) was “strong ovicidal efficacy”. For the same molecule, the “ovicidal efficacy against Plutella eggs (FIG. 7)” value ([3]; 0.5 mM) was “no inhibition” and the “ovicidal efficacy against Plutella eggs (FIG. 7)” value ([3]; 2 and 1 mM) was “strong ovicidal efficacy”.
With `Cc1cccc(-c2cccc(C)n2)n1` [6,6′-dimethyl-2,2′-dipyridyl] the “% Inhibition relative to the FeSO4 controls” value [1, 6] was 3%, the “% Inhibition relative to the FeSO4 controls” value [1, 7] was 0% and the “% Inhibition relative to the FeSO4 controls” value [1, 8] was 38%. The “% Inhibition of egg hatch relative to control” value ([5]; 0.001 mM) was “No inhibition”, the “% Inhibition of egg hatch relative to control” value ([5]; 0.01 mM) was “No inhibition” and the “% Inhibition of egg hatch relative to control” value ([5]; 0.1 mM) was “No inhibition”. For the same molecule, the “% Inhibition of egg hatch relative to control” value ([5]; 1 mM) was “significantly inhibit”, the “% Inhibition of egg hatch relative to control” value ([5]; 10 mM) was “significantly inhibit” and the “% Inhibition of egg hatch relative to control” value ([3]; 1 mM) was “strong ovicidal effects”. The “% Inhibition of egg hatch relative to control” value ([3]; 10 mM) was “strong ovicidal effects”, the “egg hatching of Plutella eggs” value ([3]; 0.1 and 0.01 mM) was “no observable effects” and the “egg hatching of Plutella eggs” value ([3]; 10 and 1 mM) was “effective at inhibiting egg hatching”.
